How the values were obtained:
[1] = tested on: endometrium in estrogen-primed immature rabbits; assay: McPhail test (agonistic, progestational activity); format: in vivo, rabbit; conditions: 0-4 scale; 5 days; MPA 0.05 mg/kg/day, Org 214007-0 0.5 mg/kg/day; n=2
Experimental: The McPhail (or anti-McPhail) test was used to evaluate potential progestational (or anti-progestational) activity of Org 214007-0 on the endometrium in estrogen-primed immature rabbits after once-daily administration. The female NZW rabbits were housed in pairs in a light- and temperature-controlled room, fed daily with 40 - 50 g standard pelleted food and with free access to tap-water. Before treatment with compounds rabbits were primed daily in the morning with a subcutaneous dose of 2 μg estradiol benzoate for 8 days. […] Transverse sections were prepared, stained with haematoxylin-eosin and evaluated microscopically. Endometrial development was scored on a 0-4 scale as follows: score 0: no development of glands; score 1: start of development of glands; score 2: clear-cut development of glands with ducts beginning to branch; score 3: about 2/3 of stroma bearing glandual tissue; score 4: more than 2/3 of stroma bearing glandular tissue. A score of 2 or higher in both rabbits was evaluated as a positive resonse.
For both the agonistic and antagonistic test immature female NZW rabbits (n=2 per treatment group) were primed with estrogen. […] One day after the last treatment the uterus was dissected and endometrial development was scored on a 0-4 scale. […]

[2] = biological target: T1, human estrogen receptor beta (ERβ) (Homo sapiens, UniProt Q92731); assay: CHO steroid receptor reporter assay, ERβ / rat oxytocin-Luc; format: cell-based; conditions: ERß
T1 construct: expressed in transfected cells; host or cells: CHO K1
Source text: (§1) For monitoring both human steroid receptor agonistic as well as antagonistic activity of compounds, Chinese hamster ovary (CHO) K1 cells stably co-transfected with the specific human steroid receptor and its respective reporter construct were used (as previously described).
(§2) For human glucocorticoid receptor (GR)-specific activity CHO-GR B4.8 cells containing both recombinant human GR as well as a reporter construct consisting of the mouse mammary tumor virus (MMTV) promotor and the luciferase reporter gene, were used. Compound was incubated alone (in the agonistic setup) or with 50 nM dexamethasone (in the antagonistic setup) overnight. Hereafter, 200 µl medium was removed and 50 µl luciferine substrate solution from the LucLite luminescence kit (Packard, Meriden, USA) was added. […] Percentage maximal antagonistic efficacy was related to the maximal antagonistic efficacy of reference GR antagonist Org 34116. Similar procedures were followed for the other human steroid receptor assays (for more detailed information see Supportive Information) (SI text).
(§3) Similar procedures were followed for the other human steroid receptor assays containing combinations of human progesterone receptor B (PR-B) and MMTV-Luc, human androgen receptor (AR) and MMTV-Luc, human chimeric glucocorticoid-mineralocorticoid receptor (GGM, Trapp et al. (1994), Neuron 13: 1457) and MMTV-Luc, human estrogen receptor alpha (ERα) and rat oxytocin-Luc (45), and human estrogen receptor beta (ERβ) and rat oxytocin-Luc, respectively.

[3] = biological target: T2, human chimeric glucocorticoid-mineralocorticoid receptor (GGM) (Homo sapiens, UniProt P04150+P08235, G607S/G671E/L660Y/Q661R/V618L); assay: CHO steroid receptor reporter assay, MR (GGM) / MMTV-Luc; format: cell-based
T2 construct: glucocorticoid receptor part of the chimera (human NR3C1, P04150); expressed in transfected cells; host or cells: CHO K1
T2 sequence (P04150+P08235 with tags, fused parts or gaps P08235:G607S/P08235:V618L/P08235:L660Y/P08235:Q661R/P08235:G671E): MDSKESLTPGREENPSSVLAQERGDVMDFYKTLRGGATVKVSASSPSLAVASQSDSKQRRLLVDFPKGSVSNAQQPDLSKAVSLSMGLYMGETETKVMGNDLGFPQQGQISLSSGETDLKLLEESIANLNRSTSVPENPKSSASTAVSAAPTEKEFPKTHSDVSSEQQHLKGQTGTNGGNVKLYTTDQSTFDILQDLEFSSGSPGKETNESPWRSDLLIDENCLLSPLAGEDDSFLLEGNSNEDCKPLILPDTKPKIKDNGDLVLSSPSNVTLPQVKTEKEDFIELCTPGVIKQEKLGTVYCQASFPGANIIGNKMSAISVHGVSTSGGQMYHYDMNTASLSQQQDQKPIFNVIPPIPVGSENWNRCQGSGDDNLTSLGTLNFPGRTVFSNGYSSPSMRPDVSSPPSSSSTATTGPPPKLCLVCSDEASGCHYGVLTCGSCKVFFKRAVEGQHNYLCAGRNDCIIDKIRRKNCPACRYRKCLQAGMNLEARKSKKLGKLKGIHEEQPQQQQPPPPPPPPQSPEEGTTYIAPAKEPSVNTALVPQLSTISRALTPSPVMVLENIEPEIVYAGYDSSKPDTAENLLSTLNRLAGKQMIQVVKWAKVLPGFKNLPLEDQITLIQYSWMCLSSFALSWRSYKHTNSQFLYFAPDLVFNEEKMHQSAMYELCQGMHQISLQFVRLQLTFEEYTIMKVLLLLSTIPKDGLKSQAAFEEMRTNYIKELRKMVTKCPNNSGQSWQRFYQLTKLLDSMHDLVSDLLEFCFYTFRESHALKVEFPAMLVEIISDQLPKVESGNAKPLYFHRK
Source text: as §1, §2, §3

[4] = tested on: endometrium in estrogen-primed immature rabbits; assay: anti-McPhail test (antagonistic, anti-progestational activity); format: in vivo, rabbit; conditions: 0-4 scale; 7 days with progesterone; RU486 4 mg/kg/day, Org 214007-0 0.5 mg/kg/day oral; n=2
Experimental: For the anti-McPhail test, the estrogen-primed rabbits were subsequently treated for 7 days with inducer progesterone (0.25 mg/kg/day s.c.) in combination with an oral treatment of either placebo, reference RU486 (4 mg/kg/day) or Org 214007-0 (0.5 mg/kg/day). The uterus preparation and evaluation of the endometrium was performed as described above.
For the antagonistic test, after oestrogen priming, rabbits were treated for 7 days with progesterone and placebo, reference RU486 or Org 214007-0. One day after the last treatment the uterus was dissected and endometrial development was scored on a 0-4 scale. […] After treatment with Org 214007-0 no reduction of the endometrial transformation was observed (score 3.31), indicative for no anti-progestagenic activity

T1 sequence (Q92731 whole entry): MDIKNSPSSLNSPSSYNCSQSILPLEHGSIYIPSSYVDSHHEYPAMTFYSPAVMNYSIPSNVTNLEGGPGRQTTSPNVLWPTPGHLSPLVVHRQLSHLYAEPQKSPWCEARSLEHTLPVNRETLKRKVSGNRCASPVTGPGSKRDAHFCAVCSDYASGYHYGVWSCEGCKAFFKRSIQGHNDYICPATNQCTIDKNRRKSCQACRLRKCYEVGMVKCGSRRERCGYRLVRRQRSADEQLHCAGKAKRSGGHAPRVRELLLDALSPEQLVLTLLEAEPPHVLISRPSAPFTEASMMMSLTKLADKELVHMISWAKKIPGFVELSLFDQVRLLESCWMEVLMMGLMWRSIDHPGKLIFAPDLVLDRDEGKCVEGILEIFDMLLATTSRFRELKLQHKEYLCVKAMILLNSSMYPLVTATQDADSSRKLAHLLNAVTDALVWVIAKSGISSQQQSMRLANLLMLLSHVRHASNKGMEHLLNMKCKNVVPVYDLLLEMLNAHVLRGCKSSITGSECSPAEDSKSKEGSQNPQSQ

EC50 ([2]; read-out: EC50 (agonist)): > 100 nM
IC50 ([2]; read-out: IC50 (antagonist)): > 1000 nM
% agonist potency ([2]; relative to reference compound): <0.01%
% antagonist potency ([2]; relative to reference compound): <0.9%
Emax ([3]; read-out: % efficacy (antagonist)): > 40%
EC50 ([3]; read-out: EC50 (agonist)): > 1000 nM
IC50 ([3]; read-out: IC50 (antagonist)): > 1260 nM
% agonist potency ([3]; relative to reference compound): <0.1%
% antagonist potency ([3]; relative to reference compound): <1.27%
Structure (SMILES): Cc1nnsc1C(=O)N[C@H]1CCN2c3ccc(C#N)cc3[C@@H](C)c3ccccc3[C@@H]2C1 [Org 214007-0]
endometrial development score, agonistic test [1]: 0.5
endometrial development score, antagonistic test [4]: 3.31
